The record followed here is patent publication US20250073251A1, “COMPOSITIONS AND METHODS AND USES THEREOF” (Journey Medical Corporation, priority 2019, published 2025).

Structures can show the parent of a compound that is named as a salt.

One data set is described as follows: in vivo. The note with it: both, Göttingen, minipig, plasma, topical or ocular.
The nature of data set [1]: Toxicokinetics after daily dermal application.
Procedure: (§1) Bioanalytical Sample Collection Blood samples (approximately 2 mL) are collected from all surviving animals via the abdominal vena cava through the thoracic inlet for determination of the plasma concentrations of adapalene and minocycline (see Tables 5 and 6). The animals were not fasted prior to blood collection, with the exception of the intervals that coincided with fasting for clinical pathology collections.
(§2) Blood samples are collected in tubes containing K2EDTA and placed on wet ice and centrifuged under refrigerated conditions. The resulting plasma is divided into 3 aliquots (100 μL in Aliquot 1 [minocycline], 500 μL in Aliquot 2 [adapalene], and any remaining plasma in Aliquot 3) in pre-labeled cryovials. All aliquots are stored frozen at −60° C. to −90° C.
(§3) The TK parameters are determined for adapalene and minocycline from individual concentration-time data by the Testing Facility.

Procedure for in vivo: as §1, §2, §3

One may read the Cmax as the maximum level reached in the sampled fluid or tissue. What is called Tmax is the time at which the peak concentration occurs. Turning to `CN(C)c1ccc(O)c2c1C[C@H]1C[C@H]3[C@H](N(C)C)C(O)=C(C(N)=O)C(=O)[C@@]3(O)C(O)=C1C2=O` [minocycline, minocycline hydrochloride], the peak level in the data set “in vivo” (Cmax) was 17.4 ng/mL. Further, in data set [1] (Day 91), the “systemic exposure, dependence on sex” value is given as “independent of sex”. For the same compound, the Tmax entry is “(4-8) hr” in data set [1] (Group 6, minocycline […] + adapalene […] FCD105 Foam, Day 1, minimum-maximum (median not reported)); “(0-8) hr” in data set [1] (Group 6, minocycline […] + adapalene […] FCD105 Foam, Day 91, minimum-maximum (median not reported)); 4 h in data set [1] (Göttingen, minipig, plasma, topical or ocular, […], Tmax, Group 4, minocycline […] + adapalene […] FCD105 Foam, Day 1, median); 2 h in data set [1] (Göttingen, minipig, plasma, topical or ocular, […], Tmax, Group 4, minocycline […] + adapalene […] FCD105 Foam, Day 91, median); 24 h in data set [1] (Göttingen, minipig, plasma, topical or ocular, […], Tmax, Group 5, minocycline […] + adapalene […] FCD105 Foam, Day 1, median); 2 h in data set [1] (Göttingen, minipig, plasma, topical or ocular, […], Tmax, Group 5, minocycline […] + adapalene […] FCD105 Foam, Day 91, median).
